These results are taken from US11779597B2, “Method of treating Parkinson's and other neurodegenerative diseases” (Vector Vitale IP LLC, priority 2019, dated 2023).

The test system of data set [1] is human T-lymphocytes (CD3+). Conditions: cited from earlier work.
The test system of the next data set is normal human fibroblasts. The experiment in a line: Metabolic activity of cells (MTT assay). The format is cell-based. To be noted: 72 hours, control = 100% of living cells. On the procedure: In vitro assessment of the effects of E2+^85Rbe on metabolic activity of normal human fibroblasts (MTT assay).
Proliferative and metabolic activity of cells was determined by the colorimetric method.
The metabolic activity of the cells (i.e., the number of living cells) was assessed by MTT staining.
24 hours after the last reagent, the cells were seeded at a concentration of 1×10^4 cells/well in wells of a 96-well plate in complete DMEM nutrient medium with 10% FBS and […]. The cells were cultured in a humidified atmosphere at 5% CO2 and 37° C. for 24 hours. After 24 hours, various doses of experimental substances were added to the respective wells. The cells were incubated at 37° C. and 5% CO2 for an additional 72 hours.
Upon completion of the incubation with the preparations, the proliferative and metabolic activity of the cells in the experiment was evaluated by the colorimetric method by staining MTT cells:
10 μl of the MTT solution (5 mg/ml of the dye in phosphate-buffered saline) was added to each well of the plate; the plate was incubated in a CO2 incubator at 37° C. for 3 hours. After that, the medium was removed from the wells, and the formed tetraformazan crystals were dissolved in 100 μl of dimethylsulfoxide.
When MTT was used, the results were evaluated using a multi-well spectrophotometer at an excitation wavelength of 540 nm. The percentage of viable cells was calculated by the formula: IR=(A 540(experiment)/A540(control))×100%.
For orientation: Tetrazolium assays rely on reduction of a dye to a coloured formazan, in cell work by metabolically active cells.

[2] abbreviates: according to the published data.

On to `[Cl-].[Rb+]` [rubidium chloride], for which the “proliferation of both resting and activated lymphocytes” value in data set [1] (setting [2]) was “inhibitory effect”.

In the case of `[Cl-].[Cl-].[Zn+2]` [zinc chloride], in data set [1] (setting [2]), the “proliferation of unstimulated T-cells” value is “has no effect”. Also, the “costimulatory effect on T-cell proliferation” value in data set [1] (published data) was “costimulatory effects”.

`Cc1ccc(S(=O)(=O)[N-]c2ccccc2NC(=O)c2ccccc2)cc1.[Rb+]` [E2+Rb reference drug]: the “Metabolic activity of cells, %” value with normal human fibroblasts (2.5 μg/ml) is 128.2 ± 8.3%; with normal human fibroblasts (5 μg/ml), 103.4 ± 9.3%; with normal human fibroblasts (10 μg/ml) it was 104.6 ± 14.2%; in the data set on normal human fibroblasts (20 μg/ml), 96.8 ± 9.8%; with normal human fibroblasts (38 μg/ml), 98.8 ± 7.1%; in the data set with normal human fibroblasts (75 μg/ml), 97.7 ± 7.5%. In the data set on normal human fibroblasts (150 μg/ml), the “Metabolic activity of cells, %” value was 99.3 ± 3.2%.
